Experimental data as given in PubChem BioAssay AID2060597 (Global Health Medicines R&D, GSK, 2025).
The source made the active and inactive calls.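 Rule for the calls: active = blocking male or female gamete formation with potency of about 10 µM or stronger; inactive = the rest.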

test system: P. falciparum 3D7A gametocytes, male exflagellation, 48 h; assay: transmission-blocking activity on Pf gametocytes – dual gamete formation, strain 3D7A, dose response (AID 2060597); conditions: not given

Compound	IC50 [µM]
O=C(Nc1cccnc1)C1CCN(c2ccc(-c3ccco3)nn2)CC1	> 10
O=C1CSc2ccc(C(=O)Nc3ccc(-c4nnc5n4CCCCC5)cc3)cc2N1	> 10
COc1ccc(C(=O)N2CCN(c3ccc(-n4cccn4)nn3)CC2)cc1OC	> 10
CCCOc1cncc(S(=O)(=O)c2ccc3c(c2)CCN(C2CCC2)CC3)c1	> 10
Cc1cc(-c2cnc(N3CCn4c(nnc4C4CC4)C3)nc2-c2ccncc2)on1	> 10
Cc1nn(C2CCS(=O)(=O)C2)c(C)c1CN(C)C(=O)CN1C(=O)NC2(CCCCC2C)C1=O (stereo not drawn)	> 10
Cc1ccc2nc(CCNC(=O)CCS(=O)(=O)c3ccc4c(c3)CC(=O)N4C)[nH]c2c1	> 10
CCN(CC)c1ccc(C(=O)COc2ccc3c(c2)CCNCC3)cc1	> 10
N#Cc1c(N)n[nH]c1CCCNC(=O)c1ccc(Cl)c(S(=O)(=O)N2CCCC2)c1	> 10
COc1ccc2oc(C(=O)NC3CCC(Oc4ncccn4)CC3)cc2c1 (stereo not drawn)	> 10
O=C(c1cc2ccccc2[nH]1)N1CCC2(CC(Nc3ccncn3)C2)C1 (stereo not drawn)	> 10
N#Cc1cccc(NC(=O)CNc2ccccc2C(=O)NC2CC2)c1	> 10
O=C(Nc1ccc(N2CCCC2)nc1)N1CCN(c2cnccn2)CC1	> 10
CN(C(=O)C[C@@H]1CCN(C(=O)C2CC2)C1)c1ccc(-c2ccc(C#N)cc2)cc1	> 10
O=C(/C=C/c1n[nH]c2ccccc12)Nc1ccc(C(=O)NCCN2CCOCC2)cc1	> 10
CCN(C(=O)C=Cc1ccc(S(=O)(=O)N2CCc3ccccc32)cc1)C1CCS(=O)(=O)C1 (stereo not drawn)	> 10

Compound	IC50 [µM]
O=C(COc1ccc(Br)cc1F)N1CCN(c2cnccn2)CC1	> 10
NC(=O)CC1CCN(C(=O)c2sc3sccc3c2Cl)CC1	> 10
Cc1cccc(-c2nn(Cc3ccc(C(=O)NCCCO)cc3)c(=O)cc2N2CCCC(CO)C2)c1 (stereo not drawn)	> 10
Cc1cc(Cl)ccc1OCC(=O)N1CCc2c(cnc(C)c2CNC(=O)c2ccc(=O)[nH]n2)C1	> 10
O=C1CCCN1c1ccc(S(=O)(=O)N2CCN(S(=O)(=O)c3ccccc3)CC2)cc1	> 10
COc1ccc(N2CCN(C(=O)c3csc(Nc4ccccc4S(C)(=O)=O)n3)CC2)nc1	> 10
O=C(CCCc1c[nH]c2ccccc12)N1CCN(c2ccc(N3CCOCC3)nn2)CC1	> 10
COc1ccc(NC(=O)c2ccc3c(=O)n(Cc4ccccn4)cnc3c2)cc1N1CCN(C)CC1	> 10
COc1ccc(-c2ccc(CNC(=O)c3cc(C(=O)NC(C)C)ccc3Cl)cc2)cn1	> 10
O=C(/C=C/c1n[nH]c2ccccc12)N1CCN(c2cnccn2)CC1	> 5.01
O=C(Nc1nnc(-c2ccccc2)s1)N1CCCN(c2ncccn2)CC1	> 10
O=C(CCCc1ncc(-c2ccccc2)o1)N1CCOC2CCCC21 (stereo not drawn)	> 10
CC(C)Oc1ccc(-c2nnc(Oc3cccc4c3CCN(CCC(N)=O)CC4)s2)cc1C#N	> 10
O=C(CCN=C1NS(=O)(=O)c2ccccc21)Nc1ccc(S(=O)(=O)N2CCCC2)cc1	> 10
O=C(CCn1nnc2cc(S(=O)(=O)N3CCCC3)ccc21)N1CCN(c2ccccn2)CC1	> 10
Cn1cccc1C1CCCN1CC(=O)Nc1ccc(S(=O)(=O)N2CCOCC2)cc1 (stereo not drawn)	> 10

test system: not listed separately; assay: as above; conditions: P. falciparum 3D7A gametocytes, male exflagellation, 48 h

Compound	outcome
O=C(NCCCN1CCc2ccccc21)c1ccc2c(=O)n(Cc3ccccn3)cnc2c1	active
